What was measured:
[1] = molecular target: T1, WRN helicase (aa N517-P1238) (Homo sapiens, UniProt Q14191); assay: WRN ATPase assay (DNA dependent ATP hydrolysis, ADP-Glo); assay type: biochemical; details: 3 hours pre-incubation, 300 micromolar ATP, FLAP26 DNA; geometric mean of at least 2
T1 construct: The core helicase motif of the WRN protein (aa N517-P1238) was produced for this assay; His (N); ZZ (N); 3C protease cleavage site (N); made in house; host or cells: Sf21 insect cells (baculovirus; virus and BIICs made in SF9)
T1 sequence (Q14191 517-1238): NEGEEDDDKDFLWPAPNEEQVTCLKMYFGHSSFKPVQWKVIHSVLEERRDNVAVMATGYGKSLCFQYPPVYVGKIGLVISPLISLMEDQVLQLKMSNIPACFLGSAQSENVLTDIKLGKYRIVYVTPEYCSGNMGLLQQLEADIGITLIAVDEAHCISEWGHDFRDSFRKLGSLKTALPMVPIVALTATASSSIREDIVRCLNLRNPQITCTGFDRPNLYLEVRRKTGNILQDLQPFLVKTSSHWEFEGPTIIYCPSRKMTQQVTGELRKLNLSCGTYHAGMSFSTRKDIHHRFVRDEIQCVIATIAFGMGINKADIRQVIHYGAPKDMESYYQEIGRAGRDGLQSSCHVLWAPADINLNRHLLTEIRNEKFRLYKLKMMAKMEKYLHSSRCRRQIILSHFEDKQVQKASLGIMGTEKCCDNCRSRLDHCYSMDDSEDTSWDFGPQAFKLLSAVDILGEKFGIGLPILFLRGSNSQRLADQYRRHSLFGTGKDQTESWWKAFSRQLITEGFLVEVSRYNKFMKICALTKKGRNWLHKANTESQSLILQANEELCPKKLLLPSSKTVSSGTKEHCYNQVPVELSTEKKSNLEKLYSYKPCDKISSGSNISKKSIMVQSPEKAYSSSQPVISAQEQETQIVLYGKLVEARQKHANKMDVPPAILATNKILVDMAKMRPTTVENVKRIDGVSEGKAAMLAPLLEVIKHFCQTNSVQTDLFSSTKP
Procedure, shortened: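 DNA-dependent ATP hydrolysis detected as ADP by ADP-Glo luminescence, using 300 μM ATP, 0.2 nM FLAP26 substrate and 10 nM WRN aa N517-P1238 (Tris pH 7.5 buffer, 2 mM MgCl2, 50 mM NaCl). IC50s fitted from normalized duplicate half-log dilutions; reported as geometric means of at least 2 replicates.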

SW48 cells = assay: Proliferation assay SW48 (CellTiterGlo); assay type: cell-based; details: Homo sapiens, SW48, 96 h, SW48 colon carcinoma cells, 96 hours, CellTiterGlo; geometric mean of at least 2; read-out: Proliferation Assay SW48 GI50
Procedure, shortened: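 Read-out is CellTiterGlo luminescence after 96 hours of compound exposure, with % growth calculated against day-0 and vehicle-treated ATP levels. SW48 seeded at 2,000 cells/well, dosed next day with eight 3-fold serial dilutions, 0.1% DMSO. GI50 reported as geometric mean, at least 2 replicates.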

DLD1-WRN-KO cells = assay: Proliferation assay DLD1-WRN-KO (CellTiterGlo, off-target effects); assay type: cell-based; details: 96 hours, geometric mean of at least 2
Procedure, shortened: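 DLD1 cells with CRISPR knockout of WRN were exposed overnight-seeded to eight 3-fold compound dilutions (0.1% DMSO) for 96 h at 37 °C. Viability was read as ATP by CellTiterGlo luminescence against a day-0 plate, giving GI50 and residual viability at top concentration.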

| Compound | IC50 [1] [µM] | GI50 (SW48 cells) [µM] | GI50 (DLD1-WRN-KO cells) [µM] |
| --- | --- | --- | --- |
| Cc1c(N2CCN(C(=O)c3cccnc3O)CC2)c(=O)n2nc(C3=CCOCC3)nc2n1CC(=O)Nc1ccc(C(F)(F)F)cc1 [Example 48, 2-(2-(3,6-dihydro-2H-pyran-4-yl)-6-(4-(2-hydroxynicotinoyl)piperazin-1-yl)-5-methyl-7-oxo-[1,2,4]triazolo[1,5-a]pyrimidin-4(7H)-yl)-N-(4-(trifluoromethyl)phenyl)acetamide] | 0.1 | > 10 | > 10 |
| CC(=O)N1CCN(c2c(C)n(CC(=O)Nc3ccc(C(F)(F)F)cc3)c3nc(-c4ccc(F)cc4)nn3c2=O)CC1 [Example 124, 2-(6-(4-acetylpiperazin-1-yl)-2-(4-fluorophenyl)-5-methyl-7-oxo-[1,2,4]triazolo[1,5-a]pyrimidin-4(7H)-yl)-N-(4-(trifluoromethyl)phenyl) acetamide] | 0.7 | 4 | > 10 |
| CC(=O)N1CCN(c2c(C)n(CC(=O)Nc3cnc(C(F)(F)F)cc3Cl)c3nc(C4=CCOCC4)nn3c2=O)CC1 [Example 99, 2-(6-(4-acetylpiperazin-1-yl)-2-(3,6-dihydro-2H-pyran-4-yl)-5-methyl-7-oxo-[1,2,4]triazolo[1,5-a]pyrimidin-4(7H)-yl)-N-(4-chloro-6-(trifluoromethyl)pyridin-3-yl)acetamide] | 2 | 6 | > 10 |
| CC(=O)N1CCN(c2c(C)n(CC(=O)Nc3ccc(C(F)(F)F)cc3)c3nc(C4=CCC(F)(F)CC4)nn3c2=O)CC1 [Example 118, 2-(6-(4-acetylpiperazin-1-yl)-2-(4,4-difluorocyclohex-1-en-1-yl)-5-methyl-7-oxo-[1,2,4]triazolo[1,5-a]pyrimidin-4(7H)-yl)-N-(4-(trifluoromethyl)phenyl)acetamide] | 0.6 | 9 | > 10 |
| CCc1ccc(NC(=O)Cn2c(C)c(N3CCN(C(C)=O)CC3)c(=O)n3nc(C4=CCCCO4)nc23)cc1Cl [Example 31, 2-(6-(4-acetylpiperazin-1-yl)-2-(3,4-dihydro-2H-pyran-6-yl)-5-methyl-7-oxo-[1,2,4]triazolo[1,5-a]pyrimidin-4(7H)-yl)-N-(3-chloro-4-ethylphenyl)acetamide] | 0.2 | 6 | > 10 |
| CC(=O)N1CCN(c2c(C)n(CC(=O)Nc3ccc(C(F)(F)F)cc3)c3nc(N4CCC5CC54)nn3c2=O)CC1 (stereo not drawn) [Example 6, 2-(6-(4-acetylpiperazin-1-yl)-2-(2-azabicyclo[3.1.0]hexan-2-yl)-5-methyl-7-oxo-[1,2,4]triazolo[1,5-a]pyrimidin-4(7H)-yl)-N-(4-(trifluoromethyl)phenyl)acetamide] | 2 | 7 | > 10 |
| CCc1c(N2CCN(C(=O)c3c(F)ccc(F)c3O)CC2)c(=O)n2nc(C3=CCCCO3)nc2n1CC(=O)Nc1ccc(C(F)(F)F)cc1 [Example 38, 2-(6-(4-(3,6-difluoro-2-hydroxybenzoyl)piperazin-1-yl)-2-(3,4-dihydro-2H-pyran-6-yl)-5-ethyl-7-oxo-[1,2,4]triazolo[1,5-a]pyrimidin-4(7H)-yl)-N-(4-(trifluoromethyl)phenyl)acetamide] | 0.03 | 0.1 | > 10 |
| CCc1ccc(NC(=O)Cn2c(C)c(N3CCN(C(C)=O)CC3)c(=O)n3nc(C4=CCOCC4)nc23)cc1C(F)(F)F [Example 72, 2-(6-(4-acetylpiperazin-1-yl)-2-(3,6-dihydro-2H-pyran-4-yl)-5-methyl-7-oxo-[1,2,4]triazolo[1,5-a]pyrimidin-4(7H)-yl)-N-(4-ethyl-3-(trifluoromethyl)phenyl)acetamide] | 0.1 | 2 | > 10 |
| CC(=O)N1CCN(c2c(C)n(CC(=O)Nc3c(C)cc(C(F)(F)F)cc3Cl)c3nc(C4=CCOCC4)nn3c2=O)CC1 [Example 96, 2-(6-(4-acetylpiperazin-1-yl)-2-(3,6-dihydro-2H-pyran-4-yl)-5-methyl-7-oxo-[1,2,4]triazolo[1,5-a]pyrimidin-4(7H)-yl)-N-(2-chloro-6-methyl-4-(trifluoromethyl)phenyl)acetamide] | 0.8 | 3 | > 10 |
| CC(=O)N1CCN(c2c(C)n(CC(=O)Nc3ccc(C(F)(F)F)cc3)c3nc(C4=CCCCO4)nn3c2=O)CC1 [Example 109, 2-(6-(4-acetylpiperazin-1-yl)-2-(3,4-dihydro-2H-pyran-6-yl)-5-methyl-7-oxo-[1,2,4]triazolo[1,5-a]pyrimidin-4(7H)-yl)-N-(4-(trifluoromethyl)phenyl)acetamide] | 0.2 | 4 | > 10 |
| CCc1c(N2CCN(C(=O)c3nccc4cccc(O)c34)CC2)c(=O)n2nc(C3=CCOCC3)nc2n1CC(=O)Nc1ccc(C(F)(F)F)cc1C [Example 50, 2-(2-(3,6-dihydro-2H-pyran-4-yl)-5-ethyl-6-(4-(8-hydroxyisoquinoline-1-carbonyl)piperazin-1-yl)-7-oxo-[1,2,4]triazolo[1,5-a]pyrimidin-4(7H)-yl)-N-(2-methyl-4-(trifluoromethyl)phenyl)acetamide] | 0.3 | 1 | > 10 |
| CC(=O)N1CCN(c2c(C)n(CC(=O)Nc3ccc(C(F)(F)F)nc3Cl)c3nc(N4CCCC(F)C4)nn3c2=O)CC1 (stereo not drawn) [Example 5, 2-(6-(4-acetylpiperazin-1-yl)-2-(3-fluoropiperidin-1-yl)-5-methyl-7-oxo-[1,2,4]triazolo[1,5-a]pyrimidin-4(7H)-yl)-N-(2-chloro-6-(trifluoromethyl)pyridin-3-yl)acetamide] | 2 | 8 | > 10 |
| Cc1c(N2CCN(C(=O)c3ccc(F)c(F)c3O)CC2)c(=O)n2nc(N3CCOCC3)nc2n1CC(=O)Nc1ccc(C(F)(F)F)cc1 [Example 150, 2-(6-(4-(3,4-difluoro-2-hydroxybenzoyl)piperazin-1-yl)-5-methyl-2-morpholino-7-oxo-[1,2,4]triazolo[1,5-a]pyrimidin-4(7H)-yl)-N-(4-(trifluoromethyl)phenyl)acetamide] | 0.09 | 2 | > 10 |
| Cc1c(N2CCN(C(=O)c3cnccc3O)CC2)c(=O)n2nc(C3=CCOCC3)nc2n1CC(=O)Nc1ccc(C(F)(F)F)cc1 [Example 24, 2-(2-(3,6-dihydro-2H-pyran-4-yl)-6-(4-(4-hydroxynicotinoyl)piperazin-1-yl)-5-methyl-7-oxo-[1,2,4]triazolo[1,5-a]pyrimidin-4(7H)-yl)-N-(4-(trifluoromethyl)phenyl)acetamide] | 0.2 | > 10 | > 10 |
| CCc1c(N2CCN(C(=O)c3nsnc3O)CC2)c(=O)n2nc(C3=CCOCC3)nc2n1CC(=O)Nc1ccc(C(F)(F)F)cc1Cl [Example 66, N-(2-chloro-4-(trifluoromethyl)phenyl)-2-(2-(3,6-dihydro-2H-pyran-4-yl)-5-ethyl-6-(4-(4-hydroxy-1,2,5-thiadiazole-3-carbonyl)piperazin-1-yl)-7-oxo-[1,2,4]triazolo[1,5-a]pyrimidin-4(7H)-yl)acetamide] | 0.03 | 0.3 | > 10 |
| CCc1c(N2CCN(C(=O)c3ccc(Cl)c(F)c3O)CC2)c(=O)n2nc(C3=CCOCC3)nc2n1CC(=O)Nc1ccc(C(F)(F)F)cc1C [Example 45, 2-(6-(4-(4-chloro-3-fluoro-2-hydroxybenzoyl)piperazin-1-yl)-2-(3,6-dihydro-2H-pyran-4-yl)-5-ethyl-7-oxo-[1,2,4]triazolo[1,5-a]pyrimidin-4(7H)-yl)-N-(2-methyl-4-(trifluoromethyl)phenyl)acetamide] | 0.09 | 0.3 | > 10 |
| CCc1c(N2CCN(C(=O)c3ccnc(C)c3O)CC2)c(=O)n2nc(C3=CCOCC3)nc2n1CC(=O)Nc1ccc(C(F)(F)F)cc1C [Example 47, 2-(2-(3,6-dihydro-2H-pyran-4-yl)-5-ethyl-6-(4-(3-hydroxy-2-methylisonicotinoyl)piperazin-1-yl)-7-oxo-[1,2,4]triazolo[1,5-a]pyrimidin-4(7H)-yl)-N-(2-methyl-4-(trifluoromethyl)phenyl)acetamide] | 0.09 | 0.9 | > 10 |
| COCC1CCN(c2nc3n(CC(=O)Nc4ccc(C(F)(F)F)cc4)c(C)c(N4CCN(C(C)=O)CC4)c(=O)n3n2)C1 (stereo not drawn) [Example 133, 2-(6-(4-acetylpiperazin-1-yl)-2-(3-(methoxymethyl)pyrrolidin-1-yl)-5-methyl-7-oxo-[1,2,4]triazolo[1,5-a]pyrimidin-4(7H)-yl)-N-(4-(trifluoromethyl)phenyl)acetamide] | 2 | 6 | > 10 |
| CCc1c(C2CCN(C(C)=O)CC2)c(=O)n2nc(C3=CCCCO3)nc2n1CC(=O)Nc1ccc(C(F)(F)F)cc1 [Example 138, 2-(6-(1-acetylpiperidin-4-yl)-2-(3,4-dihydro-2H-pyran-6-yl)-5-ethyl-7-oxo-[1,2,4]triazolo[1,5-a]pyrimidin-4(7H)-yl)-N-(4-(trifluoromethyl)phenyl)acetamide] | 0.08 | 1 | > 10 |
